Experimental data published in patent US20150352134A1, “COMPOSITION FOR TOPICAL SKIN APPLICATION CONTAINING GINSENOSIDE F2 DERIVED FROM HYDROPONIC GINSENG” (AMOREPACIFIC CORPORATION, priority 2012, published 2015).

Tests used:
3T3-L1 cells = assay: Lipogenesis inhibition in 3T3-L1 cells (Sudan III dyeing); type: cell-based, mouse; settings: 50 µM
Method: The mouse fibroblast cell line, 3T3-L1 cells are immobilized in a 6-well culture plate filled with Dulbecco's modified eagle's medium (DMEM) (GIBCO BRL, Life Technologies, Inc.) containing 10% fetal bovine serum (FBS) at an amount of 1×10^5 cells/well. After 2 days, the used medium is replaced with a new DMEM (containing 10% FBS) medium to culture the cells for 2 days. […] After 5 days, the used DMEM medium is replaced with a normal medium (DMEM containing 10% FBS). The cells are cultured and observed until they are morphologically changed into fat cells. In order to evaluate the ginsenoside F2 in regards to the inhibitory effect on the fat accumulation in the fat cells, the completely differentiated 3T3-L1 fat cells are dyed with Sudan III ([…], Sigma-Aldrich). The fat cells are immobilized with 4% para-formaldehyde (pH 7.2) at the room temperature in a phosphate buffer solution. The fat cells are washed with phosphate-buffered saline (PBS) and then dyed with Sudan III. The picture of the fat cells is taken for visual evaluation. The control uses a medium using neither a test substance nor a comparative substance. The comparative control group is treated with 50 μM caffeine. The fat accumulation inhibitory ability is evaluated based on the degree of dying. The degree of dying is graded +++, ++, +, and - in the decreasing order.

[1] = system: prostaglandin generation in macrophagocytes collected from the abdominal cavity of a mouse; assay: Prostaglandin generation inhibition in LPS-treated macrophagocytes (ELISA); type: cell-based; settings: 100 μl of ginsenoside F2
Method: The inflammatory effect is evaluated in terms of the inhibitory effect on prostaglandin generation. Ginsenoside F2 is used to measure the effect on macrophagocytes. Firstly, macrophagocytes collected from the abdominal cavity of a mouse are treated with aspirin to have the final concentration of 500 µM, causing irreversible inhibition on the activity of cyclooxygenase (COX) remaining in the macrophagocytes. Then, 100 μl of the suspension is put in each well of a 96-well culture plate and cultured in an incubator under the conditions of 5% CO2 and 37° C. for 2 hours to immobilize the macrophagocytes on the surface of the container. Subsequently, the immobilized macrophagocytes are washed with PBS three times and used in the inflammatory improvement test. […] Then, the macrophagocytes are treated with 100 μl of ginsenoside F2, and the isolated prostaglandin is quantitatively analyzed by way of ELISA (Enzyme-Linked ImmunoSorbent Assey).
In this regard, the prostaglandin generation inhibitory activity of the ginsenoside F2 is determined by the reduced amount of prostaglandin generated in the LPS-treated group in comparison with the case of the control in terms of the percentage amount of the prostaglandin decreased by treatment with LPS and the sample, while the difference in the amount of the generated prostaglandin between the LPS-treated group and the control group is set to 100%.

Compound | Inhibition rate (%) (degree of dying with Sudan III) (3T3-L1 cells) | prostaglandin generation (Blank = 100%) [1] [%]
Cn1c(=O)c2c(ncn2C)n(C)c1=O [Comparative group, caffeine, reference compound] | + | –
CC(=O)Oc1ccccc1C(=O)O [Control (aspirin-treated group), aspirin, reference compound] | – | 25.0
